The values that follow are results of earlier work, collected in patent publication US7399860B2, “Manufacture of polyglutamate-therapeutic agent conjugates” (Cell Therapeutics Inc., priority 1999, dated 2008).

The series has as its system tumor. To be noted: tumor-bearing hosts; U.S. Pat. No. 5,977,163; Li et al. 1998.

Consider polyglutamic acid-paclitaxel conjugate, for which the “efficacy compared with the unconjugated form of the drug” value is reported as “increased efficacy”.
